# Measured values as given in patent US8865733B2, “Medication and treatment for disease” (Altman Enterprises, LLC, priority 2008, dated 2014).
# Assays:
# MS patients [1] = test: Treatment of individual MS patients with the medication (case reports, Patients A, B, C); type: in vivo, human; conditions: Patient C; low dose naltrexone 3 mg daily before the medication
# Text: Diagnosis was confirmed by an MRI of their brain, lumbar puncture, and visual evolved response.
# MS patients [2] = conditions: LDN alone; cited from earlier work
compound,measurement,setting,value
"O=C1CC[C@@]2(O)[C@H]3Cc4ccc(O)c5c4[C@@]2(CCN3CC2CC2)[C@H]1O5 [low dose naltrexone, naltrexone]",improvement under earlier treatment,MS patients [1],no improvement
same,improvement of physical ability,MS patients [2],no improvement of physical ability
